# Test results: PMC9220127, “Reactive Human Plasma Glutathione Peroxidase Mutant with Diselenide Bond Succeeds in Tetramer Formation” (Antioxidants, 2022)
# Target: T1, Sec−hGPx3 (human plasma glutathione peroxidase, GPx3) (Homo sapiens, UniProt P22352)
# T1 construct: mature form without signal peptide (nucleotides 1-72 removed), Sec49 inserted at UAG with tRNA-UTuT6, E. coli C321.ΔA.exp, Ni-NTA purified, unglycosylated, about 25 kDa; starts QEKSKMDCHGGIS
# T1 sequence (P22352 25-226): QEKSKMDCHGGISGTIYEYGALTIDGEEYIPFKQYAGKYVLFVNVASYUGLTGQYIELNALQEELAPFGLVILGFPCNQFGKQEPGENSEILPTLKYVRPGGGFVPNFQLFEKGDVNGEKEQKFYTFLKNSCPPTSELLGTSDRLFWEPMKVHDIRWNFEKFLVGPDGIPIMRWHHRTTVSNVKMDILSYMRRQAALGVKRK
# Assay: glutathione reductase-coupled NADPH oxidation at […] nm
# Type: biochemical
# Settings: 60 μM t-BuOOH, 1 mM GSH, 0.25 mM NADPH, 1 mM EDTA, pH 7.4, 37 °C; non-tetrameric recombinant enzyme
smiles,measurement,value
CC(C)(C)OO [t−BuOOH],glutathione reductase-coupled NADPH oxidation at 340 nm,"GR−coupled assay with H2O2 or t−BuOOH as substrates (Figure 1B), which revealed significant GPx activity"
